Measured values taken from paper PMC6855808, “Direct binding of phosphatidylglycerol at specific sites modulates desensitization of a ligand-gated ion channel” (eLife, 2019).
pEC50, pKd: −log10 of the molar value. Where “and” joins values, the source holds several entries; their conditions need not be identical. Equal entries are not always repeated.

Tests used:
[1] = biological target: T1, ELIC R286Q (Dickeya chrysanthemi, UniProt P0C7B7, R285Q); assay: Native MS POPG binding, mutant; design: species or system Erwinia chrysanthemi; settings: binomial fit, N varied; 12 μM POPG
T1 construct: MBP (N, cleaved yes); made in house; host or cells: OverExpress C43 (DE3) E. coli
T1 sequence (P0C7B7 whole entry R285Q): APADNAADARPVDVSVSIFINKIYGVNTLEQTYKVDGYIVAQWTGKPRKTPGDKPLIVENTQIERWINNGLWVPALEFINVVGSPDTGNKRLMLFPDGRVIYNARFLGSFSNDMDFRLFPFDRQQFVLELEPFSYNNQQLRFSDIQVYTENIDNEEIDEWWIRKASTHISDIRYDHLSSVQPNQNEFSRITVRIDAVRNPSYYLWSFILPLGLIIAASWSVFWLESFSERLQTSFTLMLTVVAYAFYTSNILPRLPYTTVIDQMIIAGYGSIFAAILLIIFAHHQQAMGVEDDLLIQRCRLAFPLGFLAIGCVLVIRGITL
Method: (§1) Native MS analysis was similar to previous descriptions for other membrane proteins ([Gault et al., 2016]). For analysis of ELIC in DDM, 30 μl of purified protein in 0.02% DDM at ~1 mg/ml was buffer exchanged into 200 mM ammonium acetate pH 7.5% and 0.02% DDM using Biospin six gel filtration spin columns (Bio-Rad, Hercules, CA). 2 μl of buffer exchanged ELIC was loaded into a borosilicate capillary emitter (Thermo Scientific, Waltham, MA), and analyzed by static nanospray on a Thermo QExactive EMR mass spectrometer. The following parameters were used to resolve the ELIC pentamer and minimize dissociation into tetramer and monomer: capillary voltage of 1.2 kV, capillary temperature of 200°C, ion transfer optics set with the injection flatapole, inter-flatapole lens, bent flatapole, transfer multiple as 8, 7, 6, 4 V, respectively, resolution 8,750, AGC target 3 × 10^6, trap pressure set to maximum, CID 200 V, and CE 100 V. For analysis of ELIC in C10E5, ELIC delipidated by injecting 300 μg onto a Sephadex 200 10/300 column (GE Healthcare) at 0.5 ml/min pre-equilibrated with Buffer A, 10% glycerol, and 0.06% C10E5 (Anatrace). 30 μl aliquots were then buffer exchanged to 100 mM ammonium acetate pH 7.5, 0.06% C10E5 using Biospin six columns, and diluted to 0.2 mg/ml. MS measurements on the QExactive EMR were performed with the parameters listed above except: capillary temperature 100°C, CID 75 V and CE 200 V. For lipid binding measurements, stocks of POPG lipid were prepared at 2× the concentration of POPG being tested in 100 mM ammonium acetate pH 7.5% and 0.06% C10E5. Lipid stocks were then mixed with 0.4 mg/ml ELIC in a 1:1 vol ratio for a final concentration of 1 μM ELIC, and samples were analyzed after >5 min incubation.
(§2) MS spectra were deconvoluted using UniDec ([Marty et al., 2015]); deconvolution of spectra with bound lipid was restricted to the 26+ to 22+ charge states (Figure 1—figure supplement 3). Peak heights of apo and lipid-bound species were extracted from UniDec, and analyzed by two approaches. The average number of bound lipids was determined by the following relationship:(1) Averagenumberboundlipid=∑n=0kn\cdot In/∑n=0kIn where n is the number of bound lipids and In is the deconvoluted peak height of ELIC with n bound lipids. Peak heights of apo and lipid-bound species were also plotted as mole fraction versus the number of bound lipids (Figure 1—figure supplement 4).
(§3) Then, the probability (B) that q sites are occupied out of N total sites is given by the binomial probability function:(3) Bq=N!/q!N-q!p^N-q(1-p)^q
(§4) B(q) was used to determine the mole fraction of each lipid-bound species at a given [A], which was used to fit the native MS data in Excel across all [A] by setting K constant and varying N or vice versa.

[2] = biological target: T2, ELIC R286Q/R299Q (Dickeya chrysanthemi, UniProt P0C7B7, R285Q/R298Q); assay: Native MS POPG binding, mutant; design: species or system Erwinia chrysanthemi; settings: binomial fit, N varied; 12 μM POPG
T2 construct: MBP (N, cleaved yes); made in house; host or cells: OverExpress C43 (DE3) E. coli
T2 sequence (P0C7B7 whole entry R285Q/R298Q): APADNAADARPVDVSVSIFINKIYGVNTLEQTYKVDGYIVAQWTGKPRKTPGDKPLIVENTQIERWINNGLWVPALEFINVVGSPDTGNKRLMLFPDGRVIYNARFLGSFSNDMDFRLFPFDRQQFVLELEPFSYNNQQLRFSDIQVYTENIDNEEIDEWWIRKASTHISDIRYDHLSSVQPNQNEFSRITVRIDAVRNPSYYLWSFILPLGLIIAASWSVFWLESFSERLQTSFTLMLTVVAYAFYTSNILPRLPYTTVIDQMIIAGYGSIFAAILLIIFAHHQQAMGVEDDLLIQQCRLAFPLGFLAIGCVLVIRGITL
Method: as §1, §2, §3, §4

[3] = biological target: T3, ELIC R301Q/R299Q (Dickeya chrysanthemi, UniProt P0C7B7, R298Q/R300Q); assay: Native MS POPG binding, mutant; design: species or system Erwinia chrysanthemi; settings: binomial fit, N varied; 12 μM POPG
T3 construct: MBP (N, cleaved yes); made in house; host or cells: OverExpress C43 (DE3) E. coli
T3 sequence (P0C7B7 whole entry R298Q/R300Q): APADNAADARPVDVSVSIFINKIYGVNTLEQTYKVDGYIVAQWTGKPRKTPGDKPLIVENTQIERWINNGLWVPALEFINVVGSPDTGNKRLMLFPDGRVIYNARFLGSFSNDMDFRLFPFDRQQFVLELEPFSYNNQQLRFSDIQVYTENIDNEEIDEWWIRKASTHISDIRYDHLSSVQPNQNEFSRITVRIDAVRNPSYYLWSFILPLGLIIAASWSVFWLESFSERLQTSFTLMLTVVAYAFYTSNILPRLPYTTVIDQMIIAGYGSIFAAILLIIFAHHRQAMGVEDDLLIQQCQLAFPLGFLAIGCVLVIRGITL
Method: as §1, §2, §3, §4

[4] = biological target: T4, ELIC R299Q (Dickeya chrysanthemi, UniProt P0C7B7, R298Q); assay: Native MS POPG binding, mutant; design: species or system Erwinia chrysanthemi; settings: binomial fit, N varied; 12 μM POPG
T4 construct: MBP (N, cleaved yes); made in house; host or cells: OverExpress C43 (DE3) E. coli
T4 sequence (P0C7B7 whole entry R298Q): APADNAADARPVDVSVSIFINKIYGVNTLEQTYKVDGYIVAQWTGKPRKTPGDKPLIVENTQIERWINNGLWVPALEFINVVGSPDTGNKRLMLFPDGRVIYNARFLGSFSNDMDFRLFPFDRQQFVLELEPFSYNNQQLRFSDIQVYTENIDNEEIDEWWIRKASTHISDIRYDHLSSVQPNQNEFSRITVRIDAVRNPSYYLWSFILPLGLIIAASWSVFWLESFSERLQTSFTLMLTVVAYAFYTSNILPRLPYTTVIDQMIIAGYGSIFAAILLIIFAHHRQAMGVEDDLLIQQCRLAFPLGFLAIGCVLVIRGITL
Method: as §1, §2, §3, §4

[5] = biological target: T5, ELIC R123Q/R299Q (Dickeya chrysanthemi, UniProt P0C7B7, R123Q/R298Q); assay: Native MS POPG binding, mutant; design: species or system Erwinia chrysanthemi; settings: binomial fit, N varied; 12 μM POPG
T5 construct: MBP (N, cleaved yes); made in house; host or cells: OverExpress C43 (DE3) E. coli
T5 sequence (P0C7B7 whole entry R123Q/R298Q): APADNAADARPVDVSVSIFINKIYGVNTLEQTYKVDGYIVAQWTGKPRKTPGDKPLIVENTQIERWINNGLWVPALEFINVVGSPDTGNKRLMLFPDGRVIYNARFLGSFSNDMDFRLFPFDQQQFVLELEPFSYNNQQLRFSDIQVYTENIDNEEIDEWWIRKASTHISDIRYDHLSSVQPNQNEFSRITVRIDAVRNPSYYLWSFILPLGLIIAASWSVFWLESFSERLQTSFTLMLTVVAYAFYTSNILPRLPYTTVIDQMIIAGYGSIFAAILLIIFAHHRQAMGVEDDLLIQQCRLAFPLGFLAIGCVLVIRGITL
Method: as §1, §2, §3, §4

[6] = biological target: T6, ELIC R117Q/R299Q (Dickeya chrysanthemi, UniProt P0C7B7, R117Q/R298Q); assay: Native MS POPG binding, mutant; design: species or system Erwinia chrysanthemi; settings: binomial fit, N varied; 12 μM POPG
T6 construct: MBP (N, cleaved yes); made in house; host or cells: OverExpress C43 (DE3) E. coli
T6 sequence (P0C7B7 whole entry R117Q/R298Q): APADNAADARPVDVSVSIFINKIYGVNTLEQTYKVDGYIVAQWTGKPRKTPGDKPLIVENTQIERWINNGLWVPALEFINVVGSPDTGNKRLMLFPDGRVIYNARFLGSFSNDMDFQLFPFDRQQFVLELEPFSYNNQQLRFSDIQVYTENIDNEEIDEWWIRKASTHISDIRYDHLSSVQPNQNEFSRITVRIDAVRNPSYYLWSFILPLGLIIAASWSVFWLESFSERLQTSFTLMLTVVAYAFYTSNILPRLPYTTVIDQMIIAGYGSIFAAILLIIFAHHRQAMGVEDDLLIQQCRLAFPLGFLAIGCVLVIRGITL
Method: as §1, §2, §3, §4

[7] = test system: ELIC WT; assay: Excised patch-clamp recordings from giant liposomes; settings: 30 mM cysteamine; for Desensitization norm current at 20 s: normalized to peak response
[8] = test system: ELIC double mutants (arginine mutants in combination with R299Q); assay: Native MS POPG binding, double arginine mutants as a group; design: species or system Erwinia chrysanthemi
Method: as §1, with “MS measurements on the QExactive EMR were performed with the parameters listed above except: capillary temperature 100°C, CID 75 V and CE 200 V. For lipid binding measurements, stocks of POPG lipid were prepared at 2× the concentration of POPG being tested in 100 mM ammonium acetate pH 7.5% and 0.06% C10E5.” left out
as §2, with “Peak heights of apo and lipid-bound species were also plotted as mole fraction versus the number of bound lipids (Figure 1—figure supplement 4).” left out

[9] = test system: ELIC WT; assay: Thermal stability assay (SEC pentamer peak after heating); assay type: binding, Erwinia chrysanthemi
Method: Purified WT ELIC in C10E5 (Buffer A, 0.06% C10E5) was diluted to 1 μM in the absence or presence of various concentrations of phospholipid. Samples were analyzed without and with heating in the absence or presence of phospholipid. […] The stabilizing effect of a phospholipid was quantified as the pentamer amplitude in the presence of phospholipid (heated) divided by control (heated).

[10] = test system: ELIC single mutants (R123Q, R286Q, R299Q); assay: Native MS POPG binding, single arginine mutants as a group; design: species or system Erwinia chrysanthemi; settings: 12 μM POPG; not statistically significant
Method: (§5) Native MS analysis was similar to previous descriptions for other membrane proteins ([Gault et al., 2016]). For analysis of ELIC in DDM, 30 μl of purified protein in 0.02% DDM at ~1 mg/ml was buffer exchanged into 200 mM ammonium acetate pH 7.5% and 0.02% DDM using Biospin six gel filtration spin columns (Bio-Rad, Hercules, CA). 2 μl of buffer exchanged ELIC was loaded into a borosilicate capillary emitter (Thermo Scientific, Waltham, MA), and analyzed by static nanospray on a Thermo QExactive EMR mass spectrometer. […] Lipid stocks were then mixed with 0.4 mg/ml ELIC in a 1:1 vol ratio for a final concentration of 1 μM ELIC, and samples were analyzed after >5 min incubation.
as §2, with “Peak heights of apo and lipid-bound species were also plotted as mole fraction versus the number of bound lipids (Figure 1—figure supplement 4).” left out

[11] = test system: ELIC WT; assay: Native MS phospholipid binding to delipidated ELIC in C10E5; design: species or system Erwinia chrysanthemi
Method: as §1, §2, §3, §4

[12] = biological target: T7, ELIC L238A (Dickeya chrysanthemi, UniProt P0C7B7, L237A); assay: Native MS POPG binding, mutant; design: species or system Erwinia chrysanthemi; settings: 12 μM POPG
T7 construct: MBP (N, cleaved yes); made in house; host or cells: OverExpress C43 (DE3) E. coli
T7 sequence (P0C7B7 whole entry L237A): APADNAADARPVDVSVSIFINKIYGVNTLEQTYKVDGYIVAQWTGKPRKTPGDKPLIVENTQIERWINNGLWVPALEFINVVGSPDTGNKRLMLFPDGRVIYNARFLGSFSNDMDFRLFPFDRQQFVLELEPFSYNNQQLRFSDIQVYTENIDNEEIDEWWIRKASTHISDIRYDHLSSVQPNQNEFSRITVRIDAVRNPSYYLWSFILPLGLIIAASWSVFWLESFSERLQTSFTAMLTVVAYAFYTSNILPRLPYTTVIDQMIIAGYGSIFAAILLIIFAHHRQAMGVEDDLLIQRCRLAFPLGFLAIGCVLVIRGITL
Method: as §5
as §2, with “Peak heights of apo and lipid-bound species were also plotted as mole fraction versus the number of bound lipids (Figure 1—figure supplement 4).” left out

CCCCCCCC/C=C\CCCCCCCC(=O)OC(COC(=O)CCCCCCCCCCCCCCC)COP(=O)(O)OCC(O)CO (centres unmarked) [POPG, 1-palmitoyl-2-oleoyl-phosphatidylglycerol]
N (# sites) [1]: 28 | N (# sites) [2]: 18 | N (# sites) [3]: 21 | N (# sites) [4]: 27 | N (# sites) [5]: 18 | N (# sites) [6]: 20 | Desensitization weighted τ ([7]; 12 mole% POPG giant liposomes): 0.93 ± 0.32 s | Activation τ ([7]; 12 mole% POPG): 112 ± 29 ms | Desensitization norm current at 20 s ([7]; 12 mole% POPG): 0.05 ± 0.02 | Activation τ ([7]; 25 mole% POPG): 134 ± 50 ms | Desensitization norm current at 20 s ([7]; 25 mole% POPG): 0.10 ± 0.04 | Desensitization weighted τ ([7]; 40 mole% POPG giant liposomes): 2.98 ± 0.24 s | Activation τ ([7]; 40 mole% POPG): 133 ± 66 ms | Desensitization norm current at 20 s ([7]; 40 mole% POPG): 0.21 ± 0.03 | Decrease in bound phospholipid with each double mutant [8]: 35–45% | Decrease in average number of bound POPG relative to R299Q ([8]; 12 μM POPG): 27–32% | Decrease in average number of bound POPG relative to WT ([8]; 12 μM POPG): 38–41% | pEC50 ([9]; 1 μM ELIC in C10E5, 32°C for 15 min, read-out: EC50 of thermal stabilizing effect (concentration of POPG for 50% effect)): 4.28 | Fraction of thermal stabilizing effect yielded by 32 bound POPG ([9]; extrapolation relating POPG binding to thermal stability): ~ 82% and > 80% | Decrease in average number of bound POPG compared to WT [10]: 13–18% | Average number of bound phospholipids per pentamer ([11]; 12 μM lipid, 1 μM ELIC): 2.9 | Maximum number of bound POPG per pentamer seen in native MS spectra ([11]; 12 μM lipid, 1 μM ELIC): up to nine | pKd ([11]; binomial binding model, 32 sites of equal affinity, 1 μM ELIC in C10E5, read-out: Dissociation constant K): 4.00 | Fold higher affinity than POPC ([11]; from binomial fits): ~2.8 × | Fold higher affinity than POPE ([11]; from binomial fits): ~ 1.9 × | Increase in average number of POPG bound compared to WT [12]: ~ 1.7 x
